Experimental data taken from patent US6908945B2, “Ester compound and its use” (Sumitomo Chemical Company, Limited, priority 2002, dated 2005).

What was measured:
[1] = tested on: female common mosquitoes (Culex pipiens pallens); assay: Knock-down test, oil solution sprayed into cubic chamber, common mosquitoes; type: in vivo; conditions: 0.7 ml of 0.00625% oil solution sprayed, 70 cm cubic chamber, ten female Culex pipiens pallens, counted for 10 minutes
From the text: A solution of 0.00625 part of the present compound (1R,cis-E) dissolved with 10 parts of dichloromethane was mixed with 89.99375 parts of deodorized kerosene to give a […] oil solution.
Ten female common mosquitoes (Culex pipiens pallens) were left in a cubic chamber (70 cm at side). Seven-tenths (0.7) ml of the 0.00625% oil solution of the present compound prepared above was sprayed with a spray gun at a pressure of 8.8×10^4 Pa from a small window on the side of the chamber. Then, the number of the knocked-down insects was counted at times for 10 minutes. The time for knocking down half of the tested insects was 1.3 minute.
The same test except that 3-phenoxybenzyl (1R,cis)-3-((E)-2-cyano-1-propenyl)-2,2-dimethylcyclopropanecarboxylate, which is a compound described in Indian Patent No. 152306, was used in place of the present compound was performed for reference. The KT50 value was 8.0 minutes.

Adult houseflies = assay: Knock-down test, oil solution sprayed into cubic chamber, adult houseflies; type: in vivo; conditions: 70 cm cubic chamber, 5 male and 5 female adult houseflies, counted for 10 minutes; for time for knocking down half of the tested insects (KT50): 0.7 ml of 0.00625% oil solution sprayed, two repetitions
From the text: A solution of 0.025 part of the present compound prepared by the production example mentioned above dissolved with 10 parts of dichloromethane was mixed with 89.9975 parts of deodorized kerosene to give a […] oil solution.
Adult houseflies (5 males and 5 females) were left in a cubic chamber (70 cm at side). Seven-tenths (0.7) ml of the 0.025% oil solution of the present compound prepared above was sprayed with a spray gun at a pressure of 8.8×10^4 Pa from a small window on the side of the chamber. Then, the number of the knocked-down insects was counted at times for 10 minutes. The time for knocking down half of the tested insects was 1.0 minute.
A solution of 0.00625 part of the present compound prepared by the production example mentioned above dissolved with 10 parts of dichloromethane was mixed with 89.99375 parts of deodorized kerosene to give a 0.00625% oil solution.
Adult houseflies (5 males and 5 females) were left in a cubic chamber (70 cm at side). Seven-tenths (0.7) ml of the 0.00625% oil solution of the present compound prepared above was sprayed with a spray gun at a pressure of 8.8×10^4 Pa from a small window on the side of the chamber. Then, the number of the knocked-down insects was counted at times for 10 minutes (two repetitions). The time for knocking down half of the tested insects (KT50) was observed. The KT50 value was 1.1 minutes.
The same test except that 4-methoxymethy-2,3,5,6-tetrafluorobenzyl (1R,trans)-3-(2-fluoro-1-propenyl)-2,2-dimethylcyclopropanecarboxylate, which is a compound of Example 12 of WO 99/32426, was used in place of the present compound was performed for reference. The KT50 value was 5.0 minutes.

SMILES | time for knocking down half of the tested insects (KT50) [1] [min] | time for knocking down half of the tested insects (KT50) (Adult houseflies) [min] | time for knocking down half of the tested insects (Adult houseflies; 0.7 ml of 0.025% oil solution sprayed) [min]
C/C(C#N)=C\[C@H]1[C@@H](C(=O)OCc2cccc(Oc3ccccc3)c2)C1(C)C (relative stereo) [3-phenoxybenzyl (1R,cis)-3-((E)-2-cyano-1-propenyl)-2,2-dimethylcyclopropanecarboxylate, reference compound] | 8.0 | – | –
COCc1c(F)c(F)c(COC(=O)[C@@H]2[C@H](C=C(C)F)C2(C)C)c(F)c1F (relative stereo) [Example 12 of WO 99/32426, 4-methoxymethy-2,3,5,6-tetrafluorobenzyl (1R,trans)-3-(2-fluoro-1-propenyl)-2,2-dimethylcyclopropanecarboxylate, reference compound] | – | 5.0 | –
COCc1c(F)c(F)c(COC(=O)C2C(C=C(C)C#N)C2(C)C)c(F)c1F [present compound (1R,cis-E)] | 1.3 | – | –
COCc1c(F)c(F)c(COC(=O)C2C(C=C(C)C#N)C2(C)C)c(F)c1F (centres unmarked) [present compound, 4-methoxymethy-2,3,5,6-tetrafluorobenzyl 3-(2-cyano-1-propenyl)-2,2-dimethylcyclopropanecarboxylate] | – | 1.1 | 1.0
